Like-named read-outs stand apart in the source and are kept apart here.
How the values were obtained:
[1] = system: HCMV Strain AD169; assay: Viral qPCR assay, HCMV in MRC-5 cells; type: cell-based, Human cytomegalovirus; settings: read-out: CMV MRC5 Cell (EC50)
Procedure, shortened: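 Viral genome copies, quantified by TaqMan qPCR with a plasmid standard curve after ~72 h infection of MRC-5 cells with AD169 at 0.05-0.1 pfu/cell, served as readout; PPIA normalisation used in one format. Compounds run as 10-point 3-fold series, in standard or 50% FBS media; EC50 by 4-parameter fit.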

[2] = system: HSV-1 Strain F; assay: Viral qPCR assay, HSV-1 in Vero cells; type: cell-based, Herpes Simplex Virus type 1; settings: read-out: HSV1 VERO Cell (EC50)
Experimental: (§1) MRCS cells, Vero cells, and MeWo cells were obtained from ATCC and were maintained at 37° C./5% CO2/90% relative humidity in Minimal Essential Medium with 10% fetal bovine serum, […] L-glutamine, 100 units/ml penicillin and 100 ug/ml streptomycin. Assay plates were prepared by dispensing compounds dissolved in DMSO into wells of 384 well collagen-coated plates using an ECHO acoustic dispenser. Each compound was tested in a 10-point, serial 3-fold dilution. Controls included uninfected cells and infected cells treated only with DMSO. Assays were initiated by mixing selected cells, in suspension, with virus, and dispensing 50 μl/well infected cells to pre-plated compounds. Plates were incubated at 37° C./5% CO2/90% relative humidity for ˜72 hrs to permit genomic replication, and infected cells were lysed by the addition of an equal volume of lysis buffer (10 mM Tris-HCl, pH8, 50 mM KCl, 2 mM MgCl2, 0.45% NP-40, 0.45% Tween-20, and 100 μg/ml proteinase K). An aliquot of the lysate was transferred to a 384-well PCR plate and incubated at 56° C. for 1 hour and then at 95° C. for 10 min. Levels of a viral gene and of the cellular control, PPIA (Thermo Fisher Assay ID=Hs04194521_s1), were measured in separate 10 μL qPCR assays using TaqMan® Gene Expression Master Mix (Applied Biosystems), and an 7900HT Fast Real-Time PCR System with 384-Well Block Module. 7-point, serial 10-fold dilutions of a plasmid standard were run on each plate to generate a standard curve, and genome copies numbers were calculated by plotting experimental Ct onto linear regression of the standard curve. Viral genome copy numbers were normalized by cellular control copy number, and compound effects were normalized to the window defined by the controls. Calculated % effects were fit using a 4-parameter algorithm, and EC50 was reported.
as §1, with “gene” for “gene and of the cellular control, PPIA (Thermo Fisher Assay ID=Hs04194521_s1),”, “in” for “in separate”, “Compound effects on viral” for “Viral”, “number” for “numbers were normalized by cellular control copy number, and compound effects”
(§2) VZV: Strain Street was maintained as an infected cell stock in MRC-5 cells. It was assayed in MeWo or MRCS cells and was used at 0.04-0.1 pfu/cell. The assays were performed in growth medium. Primer-probe set was Thermo Fisher Assay ID=AIPAEXQ. HSV-1: Strain F Street was assayed in Vero or MRCS cells and was used at 0.0005-0.004 pfu/cell in growth medium. Primer-probe set was Thermo Fisher Assay ID=AIBJZIB

[3] = system: HSV2; assay: Viral qPCR assay, HSV2 in Vero cells; type: cell-based, Herpes Simplex Virus type 2; settings: ~72 hrs, read-out: HSV2 VERO Cell (EC50)
Experimental: as §1
as §1, with “gene” for “gene and of the cellular control, PPIA (Thermo Fisher Assay ID=Hs04194521_s1),”, “in” for “in separate”, “Compound effects on viral” for “Viral”, “number” for “numbers were normalized by cellular control copy number, and compound effects”

[4] = molecular target: T1, Human cytomegalovirus DNA polymerase (Human cytomegalovirus, UniProt P08546); assay: HCMV polymerase assay (AlphaLISA); type: biochemical; settings: HCMV DNA polymerase 0.2 nM, 60 minutes at 37° C.; read-out: CMV (IC50)
T1 construct: made in house; host or cells: SF21 insect cells (baculovirus vector)
T1 sequence (P08546 whole entry): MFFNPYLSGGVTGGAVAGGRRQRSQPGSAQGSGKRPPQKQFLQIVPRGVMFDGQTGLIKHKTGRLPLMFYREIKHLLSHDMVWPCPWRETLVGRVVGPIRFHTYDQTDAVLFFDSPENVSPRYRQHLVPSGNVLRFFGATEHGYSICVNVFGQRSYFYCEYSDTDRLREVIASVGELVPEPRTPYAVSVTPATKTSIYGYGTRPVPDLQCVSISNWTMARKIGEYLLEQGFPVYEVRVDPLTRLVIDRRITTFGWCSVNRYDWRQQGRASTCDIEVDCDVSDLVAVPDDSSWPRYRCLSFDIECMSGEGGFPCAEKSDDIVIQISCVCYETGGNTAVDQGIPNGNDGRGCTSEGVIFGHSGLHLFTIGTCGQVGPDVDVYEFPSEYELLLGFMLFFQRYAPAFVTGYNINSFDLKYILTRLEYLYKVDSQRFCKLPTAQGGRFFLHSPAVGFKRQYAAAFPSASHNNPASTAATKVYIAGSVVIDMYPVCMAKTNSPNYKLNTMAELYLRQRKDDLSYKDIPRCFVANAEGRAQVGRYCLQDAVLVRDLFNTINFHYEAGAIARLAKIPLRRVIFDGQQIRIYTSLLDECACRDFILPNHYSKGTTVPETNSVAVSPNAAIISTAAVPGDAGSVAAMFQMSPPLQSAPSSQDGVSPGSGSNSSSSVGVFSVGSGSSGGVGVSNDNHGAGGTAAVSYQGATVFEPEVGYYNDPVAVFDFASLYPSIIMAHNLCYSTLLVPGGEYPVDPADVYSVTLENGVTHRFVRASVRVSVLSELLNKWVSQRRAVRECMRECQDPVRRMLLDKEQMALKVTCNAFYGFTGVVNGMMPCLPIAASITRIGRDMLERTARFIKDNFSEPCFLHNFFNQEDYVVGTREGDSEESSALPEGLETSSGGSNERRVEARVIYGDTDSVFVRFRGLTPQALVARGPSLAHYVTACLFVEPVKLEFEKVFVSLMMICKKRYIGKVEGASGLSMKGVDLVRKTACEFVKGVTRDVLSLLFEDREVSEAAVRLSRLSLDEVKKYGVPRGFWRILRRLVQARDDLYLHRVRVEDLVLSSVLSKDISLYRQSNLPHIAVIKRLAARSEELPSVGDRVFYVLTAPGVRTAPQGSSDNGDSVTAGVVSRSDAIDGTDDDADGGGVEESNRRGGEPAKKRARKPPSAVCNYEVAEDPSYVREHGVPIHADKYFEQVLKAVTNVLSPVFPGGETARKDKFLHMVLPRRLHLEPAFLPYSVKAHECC
Procedure, shortened: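 Baculovirus/SF21-expressed polymerase (HCMV 0.2 nM; VZV 0.4 nM) pre-incubated 30 min at room temperature with compound in HEPES pH 7.5 buffer, then 60 min at 37 °C with 1.6 nM DIG-primer/template, sub-nM to 24 nM dNTPs and 0.8 nM biotin-dUTP. AlphaLISA detection; IC50 from 4-parameter fit.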

[5] = molecular target: T2, varicella zoster virus DNA polymerase (Varicella-zoster virus, UniProt P09252); assay: VZV polymerase assay (AlphaLISA); type: biochemical; settings: VZV DNA polymerase 0.4 nM, 60 minutes at 37° C.
T2 construct: made in house; host or cells: SF21 insect cells (baculovirus vector)
T2 sequence (P09252 whole entry): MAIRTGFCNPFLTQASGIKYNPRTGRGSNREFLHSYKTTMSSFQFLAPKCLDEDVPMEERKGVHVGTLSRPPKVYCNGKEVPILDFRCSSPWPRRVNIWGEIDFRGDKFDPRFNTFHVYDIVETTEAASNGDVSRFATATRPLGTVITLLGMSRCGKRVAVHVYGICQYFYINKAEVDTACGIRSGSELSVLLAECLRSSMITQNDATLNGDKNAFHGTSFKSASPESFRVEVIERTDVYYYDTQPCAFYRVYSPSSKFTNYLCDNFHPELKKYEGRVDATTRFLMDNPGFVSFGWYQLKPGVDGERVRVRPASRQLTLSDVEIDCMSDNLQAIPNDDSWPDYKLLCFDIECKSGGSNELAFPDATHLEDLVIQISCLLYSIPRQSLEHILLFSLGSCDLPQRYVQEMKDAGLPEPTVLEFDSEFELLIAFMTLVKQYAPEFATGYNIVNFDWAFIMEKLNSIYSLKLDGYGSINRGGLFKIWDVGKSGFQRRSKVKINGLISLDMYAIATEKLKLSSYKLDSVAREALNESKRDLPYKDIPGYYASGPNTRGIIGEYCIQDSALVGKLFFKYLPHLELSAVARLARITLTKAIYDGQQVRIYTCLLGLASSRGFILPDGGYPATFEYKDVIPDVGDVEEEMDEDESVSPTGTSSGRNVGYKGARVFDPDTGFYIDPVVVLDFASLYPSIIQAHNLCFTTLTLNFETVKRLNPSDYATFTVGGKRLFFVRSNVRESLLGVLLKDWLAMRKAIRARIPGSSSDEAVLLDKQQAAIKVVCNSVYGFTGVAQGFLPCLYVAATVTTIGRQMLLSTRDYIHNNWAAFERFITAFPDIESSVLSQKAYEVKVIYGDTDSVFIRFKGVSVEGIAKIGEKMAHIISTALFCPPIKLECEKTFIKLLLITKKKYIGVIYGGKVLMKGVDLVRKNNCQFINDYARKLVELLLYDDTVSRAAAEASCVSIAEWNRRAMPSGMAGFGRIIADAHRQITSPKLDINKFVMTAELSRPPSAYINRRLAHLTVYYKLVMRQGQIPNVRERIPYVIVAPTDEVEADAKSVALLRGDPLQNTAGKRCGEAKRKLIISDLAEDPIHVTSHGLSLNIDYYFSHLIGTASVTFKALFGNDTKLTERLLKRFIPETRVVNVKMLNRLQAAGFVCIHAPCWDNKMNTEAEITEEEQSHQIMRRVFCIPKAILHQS
Experimental: Human cytomegalovirus and varicella zoster virus DNA polymerases were expressed via baculovirus vector in SF21 cells and purified. Heterodimeric nucleic acid substrate used in the herpesvirus polymerase reactions was generated by annealing a 59-mer template to a 17-mer digoxigenin-labeled primer. Polymerase (HCMV final concentration of 0.2 nM; VZV final concentration of 0.4 nM) was combined with an inhibitor compound or DMSO in assay buffer (10 mM HEPES, pH 7.5, 25 mM KCl, 25 mM NaCl, 5 mM MgCl2, 5% glycerol, 0.67 mg/ml bovine serum albuminutes, and 1 mM tris(2-carboxyethyl)phosphine), and this mixture was pre-incubated for 30 minutes at room temperature in 384-well microtiter plates. The polymerization reaction was initiated by the addition of template/primer substrate (final concentration: 1.6 nM), and dNTPs (final concentration: 24 nM dCTP, 24 nMdGTP, 16 nM dATP, 16 nM dTTP, and 0.8 nM biotin-dUTP). After 60 minutes incubation at 37° C., reactions were terminated with quench buffer (25 mM HEPES pH 7.5, 100 mM NaCl, 0.25% Tween-20, 12 mM EDTA, and 1 mg/ml bovine serum albumin). Incorporation of biotinylated UTP was detected with 2.5-ug/ml anti-DIG AlphaLISA acceptor beads and 5-10 ug/ml streptavidin AlphaLISA donor beads (Perkin Elmer). Compound effects were normalized to the window defined by the controls (DMSO only and pre-quenched wells) and were fit using a 4-parameter algorithm to report an IC50.

[6] = system: HSV-1 Strain F; assay: Viral qPCR assay, HSV-1 in MRC5 cells; type: cell-based, Herpes Simplex Virus type 1; settings: read-out: HSV1 MRC5 Cell (EC50)
Experimental: as §1
as §1, with “gene” for “gene and of the cellular control, PPIA (Thermo Fisher Assay ID=Hs04194521_s1),”, “in” for “in separate”, “Compound effects on viral” for “Viral”, “number” for “numbers were normalized by cellular control copy number, and compound effects”
as §2

[7] = system: HSV2; assay: Viral qPCR assay, HSV2 in MRC5 cells; type: cell-based, Herpes Simplex Virus type 2; settings: read-out: HSV2 MRC5 Cell (EC50)
Experimental: as §1
as §1, with “gene” for “gene and of the cellular control, PPIA (Thermo Fisher Assay ID=Hs04194521_s1),”, “in” for “in separate”, “Compound effects on viral” for “Viral”, “number” for “numbers were normalized by cellular control copy number, and compound effects”

[8] = system: VZV; assay: Viral qPCR assay, VZV in MRC5 cells; type: cell-based, varicella zoster virus; settings: read-out: VZV MRC5 Cell (IC50)
Experimental: as §1
as §1, with “gene” for “gene and of the cellular control, PPIA (Thermo Fisher Assay ID=Hs04194521_s1),”, “in” for “in separate”, “Compound effects on viral” for “Viral”, “number” for “numbers were normalized by cellular control copy number, and compound effects”
as §2

[9] = Human betaherpesvirus 5, AD169, MRC5, 72 h
[10] = Human alphaherpesvirus 1, Vero, 72 h
[11] = Human alphaherpesvirus 1, MRC5, 72 h
[12] = Human alphaherpesvirus 2, MRC5, 72 h
[13] = Human alphaherpesvirus 3, MRC5, 72 h

Structure (SMILES) | EC50 ([1]; MRC5 cells, ~72 hrs) [nM] | IC50 [4] [nM] | EC50 [1, 9] [nM] | IC50 [5] [nM] | also measured
CN1CC(n2nc(C(=O)NCc3ccc(Cl)cc3)c3c2CC(C[C@@H]2CCC(=O)N2)C3)C1 (stereo partly shown) [Compound 138] | 1870 | 170 | – | – | EC50 ([2]; ~72 hrs): 4310 nM; EC50 [3]: 5900 nM
Cn1nc(C(=O)NCc2ccc(Cl)cc2)c2c1C1(CCC1)N(C[C@@H]1CCC(=O)N1)C2 [Compound 123] | – | 1210 | 14600 | 898 | EC50 [2, 10]: 13300 nM
O=C1CC[C@H](CN2Cc3c(C(=O)NCc4ccc(Cl)cc4)nn(CCN4CC(F)C4)c3C2)N1 [Compound 4] | – | 52.6 | 2980 | 32.6 | EC50 [2, 10]: 26100 nM
CN(CCn1nc(C(=O)NCc2ccc(Cl)cc2)c2c1CN(Cc1ccnc(F)c1)C2)C(=O)C1CCC1 [Compound 66] | – | 112 | – | 48.6 | –
Cn1nc(C(=O)NCc2ccc(Cl)cc2)c2c1CC(CC1CCC(=O)N1)C2 (single isomer, unassigned) [Compound 128] | – | 1060 | – | 289 | –
CC1(C(=O)NCCn2nc(C(=O)NCc3ccc(Cl)cc3)c3c2CN(C[C@H]2CCC(=O)N2)C3)CC1 [Compound 26] | – | 16.2 | 2630 | 10.2 | EC50 [2, 10]: 66100 nM
Cn1nc(C(=O)NCc2ccc(Cl)cc2)c2c1CC(O)(C[C@H]1CCC(=O)N1)C2 (stereo partly shown) [Compound 139] | 99000 | 50500 | – | – | EC50 ([2]; ~72 hrs): 99000 nM; EC50 [3]: 33000 nM
O=C1CC[C@H](CN2Cc3c(C(=O)NCc4ccc(Cl)cc4)nn(Cc4nccs4)c3C2)N1 [Compound 48] | – | 69.7 | 4020 | 118 | –
Cn1nc(C(=O)NCc2ccc(Cl)cc2)c2c1C(CO)N(C[C@H]1CCC(=O)N1)C2 (stereo partly shown) [Compound 122] | 1310 | 195 | – | 24.1 | EC50 ([2]; ~72 hrs): 860 nM
O=C(NCc1ccc(Cl)cc1)c1nn(CCNC(=O)C2CCC2)c2c1CN(Cc1ccncc1F)C2 [Compound 69] | – | 173 | – | 84.9 | –
CN(CCn1nc(C(=O)NCc2ccc(Cl)cc2)c2c1CN(Cc1ccncc1F)C2)C(=O)C1CCC1 [Compound 68] | – | 123 | – | 59.1 | –
CC1c2c(c(C(=O)NCc3ccc(Cl)cc3)nn2C)CN1C[C@@H]1CCC(=O)N1 (stereo partly shown) [Compound 101] | 32700 | 531 | – | 391 | EC50 ([2]; ~72 hrs): 29100 nM
O=C1CC[C@H](CN2Cc3c(C(=O)NCc4ccc(Cl)cc4)nn(C4CCOC4)c3C2)N1 (single isomer, unassigned) [Compound 34] | 1800 | 51.6 | – | – | EC50 ([6]; ~72 hrs): 790 nM; EC50 ([7]; ~72 hrs): 1850 nM; IC50 ([8]; ~72 hrs): 2050 nM
O=C1CC[C@H](CN2Cc3c(C(=O)NCc4ccc(Cl)cc4)nn(-c4ncccn4)c3C2)N1 [Compound 28] | 108 | 15.2 | – | – | EC50 ([6]; ~72 hrs): 139 nM; EC50 ([7]; ~72 hrs): 89.5 nM; IC50 ([8]; ~72 hrs): 210 nM
CN(CCn1nc(C(=O)NCc2ccc(Cl)cc2)c2c1CN(Cc1c(F)cncc1F)C2)C(=O)C1CCC1 [Compound 63] | – | 99.3 | – | 76 | –
Cn1ccnc1-n1nc(C(=O)NCc2ccc(Cl)cc2)c2c1CN(C[C@H]1CCC(=O)N1)C2 [Compound 20] | – | 115 | 448 | – | EC50 [6, 11]: 449 nM; EC50 [7, 12]: 143 nM; IC50 [8, 13]: 309 nM
C[C@@H]1c2c(C(=O)NCc3ccc(Cl)cc3)nn(C)c2CN1C[C@H]1CCC(=O)N1 [Compound 125] | 2980 | 1370 | – | – | EC50 ([2]; ~72 hrs): 4980 nM; EC50 [3]: 8040 nM
CCOc1cnc(-n2nc(C(=O)NCc3ccc(Cl)cc3)c3c2CN(C[C@H]2CCC(=O)N2)C3)nc1 [Compound 16] | – | 31.2 | 298 | – | EC50 [6, 11]: 233 nM; EC50 [7, 12]: 74.5 nM; IC50 [8, 13]: 208 nM
O=C1N[C@@H](CN2Cc3c(C(=O)NCc4ccc(Cl)cc4)nn(C(F)F)c3C2)CO1 [Compound 99] | – | 5.07 | 60.5 | – | EC50 [6, 11]: 79.5 nM; EC50 [7, 12]: 43.2 nM; IC50 [8, 13]: 53.1 nM
O=C1CC[C@H](CN2Cc3c(C(=O)NCc4ccc(Cl)cc4)nn(-c4ncc5cnccn45)c3C2)N1 [Compound 8] | 678 | 18.5 | – | – | EC50 ([6]; ~72 hrs): 299 nM; EC50 ([7]; ~72 hrs): 226 nM; IC50 ([8]; ~72 hrs): 479 nM
CC([C@@H]1CCC(=O)N1)N1Cc2c(C(=O)NCc3ccc(Cl)cc3)nn(-c3nccs3)c2C1 (single isomer, unassigned) [Compound 5] | 392 | 5.3 | – | – | EC50 ([6]; ~72 hrs): 248 nM; EC50 ([7]; ~72 hrs): 248 nM; IC50 ([8]; ~72 hrs): 405 nM
Cc1cnc(-n2nc(C(=O)NCc3ccc(Cl)cc3)c3c2CN(C[C@H]2CCC(=O)N2)C3)s1 [Compound 11] | – | 22.7 | 263 | – | EC50 [6, 11]: 172 nM; EC50 [7, 12]: 50.6 nM; IC50 [8, 13]: 170 nM

Reference: patent US20240059693A1, “FUSED BICYCLIC PYRAZOLE DERIVATIVES AND METHODS OF USE THEREOF FOR THE TREATMENT OF HERPESVIRUSES” (Merck Sharp & Dohme LLC, priority 2020, published 2024)
